Measurements from patent publication US8901118B2, “Compounds and methods for kinase modulation, and indications therefor” (Plexxikon Inc., priority 2010, dated 2014).

Assays:
c-Kit kinase = c-Kit kinase (Homo sapiens, UniProt P10721); experiment: c-Kit kinase biochemical activity assay (AlphaScreen, biotin-(E4Y)10 phosphorylation); conditions: 100 μM ATP; read-out: Biochemical Inhibition IC50 Kit
Method in brief: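 AlphaScreen read-out (streptavidin donor, anti-phosphotyrosine PY20 acceptor beads, EDTA stop) of c-Kit activity. Reaction: 0.75 ng kinase, 100 µM ATP, 30 nM biotin-(E4Y)10, 25 mM HEPES pH 7.5, 2 mM MgCl2, 2 mM MnCl2, 5% DMSO, 1 h room temperature. IC50 derived over an 8-point, two-fold dilution series.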

BCR-KIT BaF3 cells = biological target: T1, BCR-KIT BaF3 cells (Homo sapiens, UniProt P10721); experiment: BaF3 BCR-KIT cell proliferation assay (ATPlite); format: cell-based; conditions: read-out: Inhibition of Cell Proliferation IC50, BCR/BaF3 Kit
T1 construct: fused on or other part: P11274 (Breakpoint cluster region protein)
Method in brief: (§1)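 Cells are plated overnight: BaF3 at 10,000/well in G418 medium without WEHI/IL-3, MV-4-11 at 25,000/well in IMDM with 10% FBS. An 8-point 1:3 compound titration (10 μM top) is then added, and plates are incubated 3 days at 37 °C before ATPlite readout and IC50 determination.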

BCR-NTRK3 BaF3 cells = biological target: T2, BCR-NTRK3 BaF3 cells (Homo sapiens, UniProt Q16288); experiment: BaF3 BCR-NTRK3 cell proliferation assay (ATPlite); format: cell-based; conditions: read-out: Inhibition of Cell Proliferation IC50, BCR/BaF3 TrkC
T2 construct: fused on or other part: P11274 (Breakpoint cluster region protein)
Method in brief: as §1

T2 sequence (Q16288 whole entry, the tested form may be a part): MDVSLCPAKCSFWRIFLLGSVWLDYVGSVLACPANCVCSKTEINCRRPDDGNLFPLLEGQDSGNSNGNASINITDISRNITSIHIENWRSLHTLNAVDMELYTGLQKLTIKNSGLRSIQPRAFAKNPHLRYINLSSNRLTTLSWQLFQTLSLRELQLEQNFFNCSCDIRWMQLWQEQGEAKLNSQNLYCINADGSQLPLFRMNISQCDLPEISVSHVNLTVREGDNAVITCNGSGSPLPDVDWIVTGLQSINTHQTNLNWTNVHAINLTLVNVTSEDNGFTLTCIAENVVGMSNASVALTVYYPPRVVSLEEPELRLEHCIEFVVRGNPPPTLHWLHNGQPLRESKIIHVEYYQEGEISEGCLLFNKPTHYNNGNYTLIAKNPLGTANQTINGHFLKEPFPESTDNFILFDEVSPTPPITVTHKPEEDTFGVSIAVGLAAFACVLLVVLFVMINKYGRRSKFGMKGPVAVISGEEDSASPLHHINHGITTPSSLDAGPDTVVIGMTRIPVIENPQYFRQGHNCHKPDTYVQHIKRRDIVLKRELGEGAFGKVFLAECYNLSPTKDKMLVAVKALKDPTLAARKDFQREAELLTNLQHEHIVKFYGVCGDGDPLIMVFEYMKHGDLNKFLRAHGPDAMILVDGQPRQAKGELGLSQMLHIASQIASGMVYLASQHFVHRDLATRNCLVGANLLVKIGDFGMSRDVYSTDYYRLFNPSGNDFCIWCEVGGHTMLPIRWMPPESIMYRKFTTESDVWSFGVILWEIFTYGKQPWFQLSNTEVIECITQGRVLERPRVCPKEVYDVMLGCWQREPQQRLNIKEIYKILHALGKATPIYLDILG
T1 sequence (P10721 589-937): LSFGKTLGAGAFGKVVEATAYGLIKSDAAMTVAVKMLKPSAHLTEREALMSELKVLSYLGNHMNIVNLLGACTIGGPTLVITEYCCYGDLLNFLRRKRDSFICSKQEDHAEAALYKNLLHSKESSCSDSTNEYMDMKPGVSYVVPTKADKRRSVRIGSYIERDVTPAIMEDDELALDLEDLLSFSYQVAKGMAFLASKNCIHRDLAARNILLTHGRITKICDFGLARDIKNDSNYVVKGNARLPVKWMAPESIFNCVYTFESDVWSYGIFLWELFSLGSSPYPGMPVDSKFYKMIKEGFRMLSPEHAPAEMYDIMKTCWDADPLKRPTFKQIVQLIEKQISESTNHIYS
Sequence of c-Kit kinase (P10721 26-976): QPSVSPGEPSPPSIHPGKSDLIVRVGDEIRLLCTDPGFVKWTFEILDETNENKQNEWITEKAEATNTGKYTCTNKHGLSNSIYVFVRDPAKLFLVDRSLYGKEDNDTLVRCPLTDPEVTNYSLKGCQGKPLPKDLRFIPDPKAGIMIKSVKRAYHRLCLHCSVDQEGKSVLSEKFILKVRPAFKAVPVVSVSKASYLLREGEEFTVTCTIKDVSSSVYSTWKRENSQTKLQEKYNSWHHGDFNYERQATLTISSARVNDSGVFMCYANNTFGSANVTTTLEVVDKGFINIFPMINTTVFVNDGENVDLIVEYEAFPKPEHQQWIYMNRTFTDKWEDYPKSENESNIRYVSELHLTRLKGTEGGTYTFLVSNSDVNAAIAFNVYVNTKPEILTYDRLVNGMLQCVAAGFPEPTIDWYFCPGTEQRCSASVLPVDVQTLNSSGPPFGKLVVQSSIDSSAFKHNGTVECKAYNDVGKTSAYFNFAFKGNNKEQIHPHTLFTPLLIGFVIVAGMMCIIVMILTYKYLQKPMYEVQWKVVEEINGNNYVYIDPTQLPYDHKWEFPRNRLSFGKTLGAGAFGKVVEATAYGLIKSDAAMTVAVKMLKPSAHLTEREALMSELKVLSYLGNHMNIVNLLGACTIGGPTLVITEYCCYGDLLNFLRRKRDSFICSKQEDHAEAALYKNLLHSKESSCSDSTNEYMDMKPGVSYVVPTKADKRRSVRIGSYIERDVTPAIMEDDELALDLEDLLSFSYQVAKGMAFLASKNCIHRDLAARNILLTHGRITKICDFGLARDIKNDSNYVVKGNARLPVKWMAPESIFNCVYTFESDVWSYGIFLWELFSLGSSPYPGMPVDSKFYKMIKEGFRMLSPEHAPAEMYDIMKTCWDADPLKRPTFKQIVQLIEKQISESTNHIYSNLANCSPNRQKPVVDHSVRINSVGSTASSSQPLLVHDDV

Q: `Clc1cnc2[nH]cc(Cc3cnc(NC4CCC4)nc3)c2c1` [Compound P-3007, [5-(5-Chloro-1H-pyrrolo[2,3-b]pyridin-3-ylmethyl)-pyrimidin-2-yl]-cyclobutyl-amine] was tested. Which IC50 (c-Kit kinase) did it give?
A: Its IC50 is over 1000 nM.

Q: And the IC50 (BCR-KIT BaF3 cells)?
A: Its IC50 is over 10000 nM.

Q: And the IC50 (BCR-NTRK3 BaF3 cells)?
A: Its IC50 is over 10000 nM.

Q: Which IC50 (c-Kit kinase) does the source give for `Cc1cnc2[nH]cc(Cc3ccc(NC4CCCCC4)nc3F)c2c1` [Compound P-3008, cyclohexyl-[6-fluoro-5-(5-methyl-1H-pyrrolo[2,3-b]pyridin-3-ylmethyl)-pyridin-2-yl]-amine] here?
A: Its IC50 is under 1000 nM.

Q: And the IC50 (BCR-KIT BaF3 cells)?
A: Its IC50 is over 1000 nM.

Q: Which results are given for `O=C(c1ccc(Nc2ccc(C3CC3)nc2)nc1F)c1c[nH]c2ncnc(C3CC3)c12` [Compound P-4040, [6-(6-Cyclopropyl-pyridin-3-ylamino)-2-fluoro-pyridin-3-yl]-(4-cyclopropyl-7H-pyrrolo[2,3-d]pyrimidin-5-yl)-methanone]?
A: IC50 (c-Kit kinase): < 100 nM; IC50 (BCR-KIT BaF3 cells): < 100 nM; IC50 (BCR-NTRK3 BaF3 cells): < 10 nM

Q: Which IC50 (c-Kit kinase) does the source give for `Fc1nc(Nc2ccc(C3CC3)nc2)ccc1Cc1c[nH]c2ncnc(C3CC3)c12` [Compound P-4041, (6-Cyclopropyl-pyridin-3-yl)-[5-(4-cyclopropyl-7H-pyrrolo[2,3-d]pyrimidin-5-ylmethyl)-6-fluoro-pyridin-2-yl]-amine] here?
A: Its IC50 is under 100 nM.

Q: What about the IC50 (BCR-KIT BaF3 cells) of the same compound?
A: The IC50 was under 100 nM.

Q: What about the IC50 (BCR-NTRK3 BaF3 cells) of the same compound?
A: Its IC50 is under 10 nM.

Q: Which results are given for `Nc1ncnc2[nH]cc(C(=O)c3ccc(NC4CCC(F)(F)CC4)nc3Cl)c12` [Compound P-4046, (4-amino-7H-pyrrolo[2,3-d]pyrimidin-5-yl)-[2-chloro-6-[(4,4-difluorocyclohexyl)amino]-3-pyridyl]methanone]?
A: IC50 (c-Kit kinase): < 1000 nM; IC50 (BCR-KIT BaF3 cells): < 1000 nM; IC50 (BCR-NTRK3 BaF3 cells): < 1000 nM

Q: With `CC(C)=CNc1ncnc2[nH]cc(C(=O)c3ccc(NC4CCC(F)(F)CC4)nc3Cl)c12` [Compound P-4047, [2-chloro-6-[(4,4-difluorocyclohexyl)amino]-3-pyridyl]-[4-(2-methylprop-1-enylamino)-7H-pyrrolo[2,3-d]pyrimidin-5-yl]methanone] as the compound, how does the IC50 (c-Kit kinase) read?
A: The IC50 was over 1000 nM.

Q: And the IC50 (BCR-KIT BaF3 cells)?
A: Its IC50 is over 1000 nM.

Q: And the IC50 (BCR-NTRK3 BaF3 cells)?
A: Its IC50 is over 1000 nM.

Q: How did the IC50 (c-Kit kinase) turn out when `Nc1ncnc2[nH]cc(C(=O)c3ccc(Nc4ccc(C5CC5)nc4)nc3F)c12` [Compound P-4048, (4-amino-7H-pyrrolo[2,3-d]pyrimidin-5-yl)-[6-[(6-cyclopropyl-3-pyridyl)amino]-2-fluoro-3-pyridyl]methanone] was run?
A: Its IC50 is under 10 nM.

Q: And the IC50 (BCR-KIT BaF3 cells)?
A: The IC50 was under 1000 nM.

Q: What about the IC50 (BCR-NTRK3 BaF3 cells) of the same compound?
A: The IC50 was under 10 nM.

Q: With `CC(C)(O)CNc1ncnc2[nH]cc(C(=O)c3ccc(Nc4ccc(C5CC5)nc4)nc3F)c12` [Compound P-4049, [6-[(6-cyclopropyl-3-pyridyl)amino]-2-fluoro-3-pyridyl]-[4-[(2-hydroxy-2-methyl-propyl)amino]-7H-pyrrolo[2,3-d]pyrimidin-5-yl]methanone] as the compound, how does the IC50 (c-Kit kinase) read?
A: The IC50 was under 1000 nM.

Q: And the IC50 (BCR-KIT BaF3 cells)?
A: Its IC50 is under 1000 nM.

Q: And the IC50 (BCR-NTRK3 BaF3 cells)?
A: Its IC50 is under 1000 nM.

Q: `CCNc1ncnc2[nH]cc(C(=O)c3ccc(NC4CCC(F)(F)CC4)nc3Cl)c12` [Compound P-4050, [2-chloro-6-[(4,4-difluorocyclohexyl)amino]-3-pyridyl]-[4-(ethylamino)-7H-pyrrolo[2,3-d]pyrimidin-5-yl]methanone] was tested. Which IC50 (c-Kit kinase) did it give?
A: The IC50 was under 1000 nM.

Q: And the IC50 (BCR-KIT BaF3 cells)?
A: Its IC50 is over 1000 nM.

Q: What about the IC50 (BCR-NTRK3 BaF3 cells) of the same compound?
A: The IC50 was under 1000 nM.

Q: Which results are given for `CCNc1ncnc2[nH]cc(C(=O)c3cnc(NC4CCC(F)(F)CC4)c(F)c3)c12` [Compound P-4051, [6-[(4,4-difluorocyclohexyl)amino]-5-fluoro-3-pyridyl]-[4-(ethylamino)-7H-pyrrolo[2,3-d]pyrimidin-5-yl]methanone]?
A: IC50 (c-Kit kinase): < 1000 nM; IC50 (BCR-KIT BaF3 cells): > 1000 nM; IC50 (BCR-NTRK3 BaF3 cells): < 10 nM

Q: Which results are given for `O=C(c1cnc(NC2CCC(F)(F)CC2)c(F)c1)c1c[nH]c2ncnc(NCC(F)(F)F)c12` [Compound P-4052, [6-[(4,4-difluorocyclohexyl)amino]-5-fluoro-3-pyridyl]-[4-(2,2,2-trifluoroethylamino)-7H-pyrrolo[2,3-d]pyrimidin-5-yl]methanone]?
A: IC50 (c-Kit kinase): > 1000 nM; IC50 (BCR-KIT BaF3 cells): > 1000 nM; IC50 (BCR-NTRK3 BaF3 cells): < 10 nM

Q: How did the IC50 (c-Kit kinase) turn out when `O=C(c1cnc(NC2CCC(F)(F)CC2)c(F)c1)c1c[nH]c2ncnc(NC3CC3)c12` [Compound P-4053, [4-(cyclopropylamino)-7H-pyrrolo[2,3-d]pyrimidin-5-yl]-[6-[(4,4-difluorocyclohexyl)amino]-5-fluoro-3-pyridyl]methanone] was run?
A: The IC50 was under 1000 nM.

Q: What about the IC50 (BCR-KIT BaF3 cells) of the same compound?
A: Its IC50 is under 1000 nM.

Q: And the IC50 (BCR-NTRK3 BaF3 cells)?
A: The IC50 was under 10 nM.

Q: `CNc1ncnc2[nH]cc(C(=O)c3cnc(NC4CCC(F)(F)CC4)c(F)c3)c12` [Compound P-4054, [6-[(4,4-difluorocyclohexyl)amino]-5-fluoro-3-pyridyl]-[4-(methylamino)-7H-pyrrolo[2,3-d]pyrimidin-5-yl]methanone] was tested. Which IC50 (c-Kit kinase) did it give?
A: The IC50 was over 1000 nM.

Q: And the IC50 (BCR-KIT BaF3 cells)?
A: Its IC50 is under 1000 nM.

Q: And the IC50 (BCR-NTRK3 BaF3 cells)?
A: Its IC50 is under 10 nM.
